Source: patent US20230416329A1, “A PEPTIDE WITH DISULFIDE BONDS AND INHIBITORY ACTIVITY AGAINST SERINE PROTEASES, DERIVED HYBRID PEPTIDES THEREOF, AND USES THEREOF” (INSTITUTE OF MATERIA MEDICA , CHINESE ACADEMY OF MEDICAL …, priority 2020, published 2023)
Values belong to the compound of their own block, whether it stands above or below them. Bridge positions count the residues as written; N and C are the ends. Peptide text beside a SMILES is read from it.

Molecular target: α-chymotrypsin (Bos taurus, UniProt P00766)
Assay: Chymotrypsin inhibitory activity of peptides (AAPFpNA hydrolysis; IC50, Ki, residual activity)
Assay type: biochemical
Settings: for Ki: Ki=IC50/(1+S/Km), Km 0.38 mM; for IC50: chymotrypsin 30 nM, AAPFpNA 0.5 mM
Protocol: The inhibition constants of various synthetic active peptide inhibitors (molecular scaffolds) against seine proteases were measured. The substrates N-succinyl-Ala-Ala-Pro-Phe-p-nitroaniline (AAPFpNA), Nα—Benzoyl-L-arginine-4-nitroaniline hydrochloride (BApNA) and N-succinyl-[…] (AAApNA) are used in competitive binding reaction to determine the inhibitory activities against α-chymotrypsin, bovine trypsin, and porcine pancreatic elastase, respectively. Experiments for α-chymotrypsin and bovine trypsin inhibition were measured in 20 mM CaCl2, 50 mM Tris-HCl buffer (pH 7.8), and that for porcine elastase inhibition was measured in 50 mM Tris-HCl buffer (pH 8.0). The concentration of the peptide was measured using optical density (OD) at 280 nm. The Michaelis constant (Km) of the enzyme hydrolysis substrate is calculated from the initial rate of substrate hydrolysis at 405 nm. The absorbance value of the substrate was measured at 405 nm after complete hydrolysis. All data were processed using nonlinear regression.
• (1) Added a total 190 μL of reaction buffer (20 mM CaCl2, 50 mM Tris-HCl (pH 7.8)) into the 96 well plate, followed by preheating at 37° C. for 15 min. Then added 2 μL of different concentrations of substrates (p-Nitroanilide, pNA, 0.5% in DMSO), and mixed by centrifugation at 500 rpm for 1 min. Finally, the plate was incubated at 37° C. for 20 min, and the absorbance value at 405 nm was measured. In the 200 μL of reaction system, the final concentrations of pNA were 0, 0.025, 0.05, 0.075, 0.1, 0.125, 0.15, 0.25, and 0.3 mM, respectively. Make three repetitions for each concentration and plot the OD405 m value with pNA concentration to obtain the standard curve. • (2) Added a total 190 μL of reaction buffer (20 mM CaCl2, 50 mM Tris-HCl (pH 7.8)) and 8 μL of 0.75 μM chymotrypsin into the 96 well plate, followed by preheating at 37° C. for 5 min. Then added 2 μL of different concentrations of substrates (AAPFpNA, dissolved in DMSO), and mixed by centrifugation at 500 rpm for 1 min. Finally, the plate was incubated at 37° C. for 20 min, and the absorbance value at 405 nm was measured. In the 200 μL of reaction system, the final concentrations of AAPFpNA were 0, 0.125, 0.25, 0.285, 0.33, 0.4, and 0.5 mM, respectively. Make three repetitions for each concentration and plot the OD405 nm value with time to obtain the corresponding curve. Divide the slope of the curve by the slope of the standard curve and the enzyme concentration to obtain the initial velocity V0 (mM/(min*mM protein). Plot the initial velocity V0 with the concentration of substrate AAPFpNA using Prism software, and the Michaelis constant Km value of chymotrypsin hydrolyzing AAPFpNA was obtained.
• (1) Added a total 190 μL of reaction buffer (20 mM CaCl2, 50 mM Tris-HCl (pH 7.8)), different concentrations of anti-chymorypsin peptides (CHs) into the pre-cold 96 well plate, followed by preheating at 37° C. for 5 min and centrifugated at 500 rpm for 1 min and allowed to stand for 4 minutes. Then added 8 μL of 750 nM chymotrypsin and incubated at 37° C. for 10 min, and centrifugated at 500 rpm for 1 min and allowed to stand for 9 minutes. Finally, added 2 μL of 50 mM AAPFpNA, and mixed by centrifugation at 500 rpm for 1 min. The plate was incubated at 37° C. for 90 min, and the absorbance value at 405 nm was measured. Three repetitions were made, and only reaction buffer and substrate were added in the blank control as the minimum absorption value (Min OD405 nm); Only reaction buffer, enzyme and substrate were added in the negative control as the maximum absorption value (Max OD405). • (2) In the 200 μL of reaction system, the final concentrations of chymotrypsin and AAPFpNA were 30 nM and 0.5 mM, respectively. • (3) Data statistics
Residual activity of enzyme (%)=(1−(Max OD405 nm−Sample OD405 nm)/(Max OD405 nm−Min OD405 nm))*100 […]

inhibitory activity against chymotrypsin (in words): good inhibitory activity
SMILES: CC[C@H](C)[C@@H]1NC(=O)[C@@H]2CCCN2C(=O)[C@@H]2CCCN2C(=O)[C@H]([C@@H](C)CC)NC(=O)[C@H](CO)NC(=O)[C@H](Cc2ccccc2)NC(=O)[C@H]([C@@H](C)O)NC(=O)[C@@H](NC(=O)[C@@H](NC(=O)CN)[C@@H](C)O)CSSC[C@@H](C(=O)N[C@@H](CC(N)=O)C(=O)O)NC1=O [CH26] (H-GTCTFSIPPICN-OH; disulfide 3-11; C-terminus assumed)

inhibitory activity against chymotrypsin (in words): certain inhibitory activity | Ki: 2.88 µM | IC50: 6.66 µM | Residual activity of chymotrypsin (peptide 0.01 μM): 102.7 ± 2.4% | Residual activity of chymotrypsin (peptide 0.1 μM): 105.3 ± 0.9% | Residual activity of chymotrypsin (peptide 1 μM): 106.0 ± 0.7% | Residual activity of chymotrypsin (peptide 3 μM): 86.8 ± 1.5% | Residual activity of chymotrypsin (peptide 6 μM): 64.9 ± 3.1% | Residual activity of chymotrypsin (peptide 10 μM): 26.2 ± 2.4% | Residual activity of chymotrypsin (peptide 25 μM): 15.5 ± 0.3% | Residual activity of chymotrypsin (peptide 100 μM): 2.9 ± 0.3% | Residual activity of chymotrypsin (peptide 300 μM): 1.2 ± 0.0% | Residual activity of chymotrypsin (peptide 1000 μM): 0.7 ± 0.1%
SMILES: CC[C@H](C)[C@@H]1NC(=O)[C@@H]2CCCN2C(=O)[C@@H]2CCCN2C(=O)[C@H]([C@@H](C)CC)NC(=O)[C@H](CO)NC(=O)[C@H](Cc2ccccc2)NC(=O)[C@H]([C@@H](C)O)NC(=O)[C@H](C)NC(=O)[C@H]([C@@H](C)O)NC(=O)CNC(=O)[C@@H](N)CSSC[C@@H](C(=O)N[C@@H](CC(N)=O)C(=O)O)NC1=O [CH27] (H-CGTATFSIPPICN-OH; disulfide 1-12; N-terminus and C-terminus assumed)

IC50: > 50 µM
SMILES: CC[C@H](C)[C@@H]1NC(=O)[C@H](Cc2ccc(O)cc2)NC(=O)[C@H](C)NC(=O)[C@H](CCSC)NC(=O)[C@H](C)NC(=O)[C@H](CCC(=O)O)NC(=O)CNC(=O)[C@@H]2CCCN2C(=O)[C@@H](N)CSSC[C@@H](C(=O)N[C@@H](Cc2ccccc2)C(=O)O)NC(=O)[C@H](CO)NC(=O)[C@H](CCCNC(=N)N)NC1=O [CH28] (H-CPGEAMAYIRSCF-OH; disulfide 1-12; N-terminus and C-terminus assumed)

IC50: > 50 µM
SMILES: CC[C@H](C)[C@@H]1NC(=O)[C@H](CO)NC(=O)[C@H](Cc2ccc(O)cc2)NC(=O)[C@H]([C@@H](C)O)NC(=O)[C@H](C)NC(=O)[C@H](CO)NC(=O)CNC(=O)CNC(=O)[C@@H](N)CSSC[C@@H](C(=O)N[C@@H](Cc2ccc(O)cc2)C(=O)O)NC(=O)[C@H](CCC(N)=O)NC(=O)[C@@H]2CCCN2C(=O)[C@@H]2CCCN2C1=O [CH29] (H-CGGSATYSIPPQCY-OH; disulfide 1-13; N-terminus and C-terminus assumed)

IC50: > 50 µM
SMILES: CC[C@H](C)[C@@H]1NC(=O)[C@H](CO)NC(=O)[C@H](Cc2ccc(O)cc2)NC(=O)[C@H]([C@@H](C)O)NC(=O)[C@H](C)NC(=O)[C@H](Cc2ccc(O)cc2)NC(=O)CNC(=O)[C@@H](N)CSSC[C@@H](C(=O)N[C@@H](Cc2ccc(O)cc2)C(=O)NCC(=O)O)NC(=O)[C@H](CCC(N)=O)NC(=O)[C@@H]2CCCN2C(=O)[C@@H]2CCCN2C1=O [CH30] (H-CGYATYSIPPQCYG-OH; disulfide 1-12)

inhibitory activity against chymotrypsin (in words): certain inhibitory activity | Ki: 2.63 µM | IC50: 6.08 µM | Residual activity of chymotrypsin (peptide 0.01 μM): 107.4 ± 5.6% | Residual activity of chymotrypsin (peptide 0.1 μM): 104.3 ± 1.7% | Residual activity of chymotrypsin (peptide 1 μM): 104.8 ± 2.6% | Residual activity of chymotrypsin (peptide 8 μM): 42.5 ± 5.9% | Residual activity of chymotrypsin (peptide 10 μM): 29.5 ± 5.1% | Residual activity of chymotrypsin (peptide 25 μM): 12.7 ± 4.0% | Residual activity of chymotrypsin (peptide 100 μM): 2.6 ± 0.3% | Residual activity of chymotrypsin (peptide 300 μM): 1.0 ± 0.1% | Residual activity of chymotrypsin (peptide 1000 μM): 0.4 ± 0.0%
SMILES: CC[C@H](C)[C@@H]1NC(=O)[C@H](CO)NC(=O)[C@H](Cc2ccc(O)cc2)NC(=O)[C@H]([C@@H](C)O)NC(=O)[C@H](C)NC(=O)[C@H](C)NC(=O)CNC(=O)[C@@H](N)CSSC[C@@H](C(=O)N[C@@H](Cc2ccccc2)C(=O)O)NC(=O)[C@H](CCCCN)NC(=O)[C@H](C)NC(=O)[C@@H]2CCCN2C1=O [CH31] (H-CGAATYSIPAKCF-OH; disulfide 1-12; N-terminus and C-terminus assumed)

inhibitory activity against chymotrypsin (in words): certain inhibitory activity | Ki: 2.76 µM | IC50: 6.38 µM | Residual activity of chymotrypsin (peptide 0.01 μM): 99.5 ± 0.1% | Residual activity of chymotrypsin (peptide 0.1 μM): 100.2 ± 1.9% | Residual activity of chymotrypsin (peptide 1 μM): 99.0 ± 2.0% | Residual activity of chymotrypsin (peptide 4 μM): 90.1 ± 6.1% | Residual activity of chymotrypsin (peptide 6 μM): 49.2 ± 2.7% | Residual activity of chymotrypsin (peptide 8 μM): 40.8 ± 6.0% | Residual activity of chymotrypsin (peptide 25 μM): 14.4 ± 1.1% | Residual activity of chymotrypsin (peptide 100 μM): 2.2 ± 0.2% | Residual activity of chymotrypsin (peptide 300 μM): 0.7 ± 0.1%
SMILES: CC[C@H](C)[C@@H]1NC(=O)[C@H](CO)NC(=O)[C@H](Cc2ccc(O)cc2)NC(=O)[C@H]([C@@H](C)O)NC(=O)[C@H](C)NC(=O)[C@H](C)NC(=O)CNC(=O)CNC(=O)[C@@H](N)CSSC[C@@H](C(=O)N[C@@H](Cc2ccccc2)C(=O)O)NC(=O)[C@H](CCCCN)NC(=O)[C@H](C)NC(=O)[C@@H]2CCCN2C1=O [CH32] (H-CGGAATYSIPAKCF-OH; disulfide 1-13; N-terminus and C-terminus assumed)

inhibitory activity against chymotrypsin (in words): good inhibitory activity
SMILES: CC[C@H](C)[C@@H]1NC(=O)[C@H](CO)NC(=O)[C@H](Cc2ccc(O)cc2)NC(=O)[C@H]([C@@H](C)O)NC(=O)[C@@H](NC(=O)[C@@H](N)Cc2ccccc2)CSSC[C@@H](C(=O)N[C@@H](Cc2ccc(O)cc2)C(=O)O)NC(=O)[C@H](CCC(N)=O)NC(=O)[C@@H]2CCCN2C(=O)[C@@H]2CCCN2C1=O [CH33] (H-FCTYSIPPQCY-OH; disulfide 2-10; C-terminus assumed)

inhibitory activity against chymotrypsin (in words): good inhibitory activity
SMILES: CC[C@H](C)[C@@H]1NC(=O)[C@H](CO)NC(=O)[C@H](Cc2ccc(O)cc2)NC(=O)[C@H]([C@@H](C)O)NC(=O)[C@@H](NC(=O)[C@@H](N)Cc2ccccc2)CSSC[C@@H](C(=O)N[C@@H](Cc2ccc(O)cc2)C(=O)N[C@@H](C)C(=O)O)NC(=O)[C@H](CCC(N)=O)NC(=O)[C@@H]2CCCN2C(=O)[C@@H]2CCCN2C1=O [CH34] (H-FCTYSIPPQCYA-OH; disulfide 2-10; N-terminus and C-terminus assumed)

inhibitory activity against chymotrypsin (in words): good inhibitory activity | Residual activity of chymotrypsin (peptide 1000 μM): 0.9 ± 0.1%
SMILES: CC[C@H](C)[C@@H]1NC(=O)[C@H](CO)NC(=O)[C@H](Cc2ccc(O)cc2)NC(=O)[C@H]([C@@H](C)O)NC(=O)[C@@H](NC(=O)[C@@H](N)Cc2ccccc2)CSSC[C@@H](C(=O)N[C@@H](CCCNC(=N)N)C(=O)O)NC(=O)[C@H](CCC(N)=O)NC(=O)[C@@H]2CCCN2C(=O)[C@@H]2CCCN2C1=O [CH35] (H-FCTYSIPPQCR-OH; disulfide 2-10; C-terminus assumed)

Ki: 1.39 µM | IC50: 3.23 µM
SMILES: CC[C@H](C)[C@@H]1NC(=O)[C@H](CO)NC(=O)[C@H](Cc2ccc(O)cc2)NC(=O)[C@H]([C@@H](C)O)NC(=O)[C@@H](NC(=O)[C@@H](N)Cc2ccccc2)CSSC[C@@H](C(=O)N[C@@H](Cc2ccc(O)cc2)C(=O)O)NC(=O)[C@H](CCCCN)NC(=O)[C@H](C)NC(=O)[C@@H]2CCCN2C1=O [CH36] (H-FCTYSIPAKCY-OH; disulfide 2-10; N-terminus and C-terminus assumed)
